Each block holds one molecule with its values, some of them ahead of it.
Experiments:
hM4 = target: T1, hM4 (Homo sapiens, UniProt P08173); assay type: cell-based; conditions: for loss of potency (fold): hM4 potency relative to 10a; for hM4 activity: replacement of the fluorine with other halogens
T1 sequence (P08173 1-479): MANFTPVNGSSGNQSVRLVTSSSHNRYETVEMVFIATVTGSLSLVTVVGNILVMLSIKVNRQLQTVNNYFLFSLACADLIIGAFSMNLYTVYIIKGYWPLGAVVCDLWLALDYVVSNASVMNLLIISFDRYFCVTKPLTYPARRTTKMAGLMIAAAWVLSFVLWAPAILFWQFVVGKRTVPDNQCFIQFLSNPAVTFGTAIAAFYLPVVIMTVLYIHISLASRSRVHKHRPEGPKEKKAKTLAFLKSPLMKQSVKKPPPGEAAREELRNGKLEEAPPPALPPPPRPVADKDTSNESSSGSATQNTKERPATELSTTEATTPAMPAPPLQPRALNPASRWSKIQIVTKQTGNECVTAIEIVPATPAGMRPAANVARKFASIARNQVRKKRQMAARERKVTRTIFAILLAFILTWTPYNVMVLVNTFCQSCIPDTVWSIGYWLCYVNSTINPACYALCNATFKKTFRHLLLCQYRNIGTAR

hM2 = target: T2, hM2 (Homo sapiens, UniProt P08172); experiment: mAChR subtype selectivity / counter screen, hM2; assay type: cell-based
T2 sequence (P08172 1-466): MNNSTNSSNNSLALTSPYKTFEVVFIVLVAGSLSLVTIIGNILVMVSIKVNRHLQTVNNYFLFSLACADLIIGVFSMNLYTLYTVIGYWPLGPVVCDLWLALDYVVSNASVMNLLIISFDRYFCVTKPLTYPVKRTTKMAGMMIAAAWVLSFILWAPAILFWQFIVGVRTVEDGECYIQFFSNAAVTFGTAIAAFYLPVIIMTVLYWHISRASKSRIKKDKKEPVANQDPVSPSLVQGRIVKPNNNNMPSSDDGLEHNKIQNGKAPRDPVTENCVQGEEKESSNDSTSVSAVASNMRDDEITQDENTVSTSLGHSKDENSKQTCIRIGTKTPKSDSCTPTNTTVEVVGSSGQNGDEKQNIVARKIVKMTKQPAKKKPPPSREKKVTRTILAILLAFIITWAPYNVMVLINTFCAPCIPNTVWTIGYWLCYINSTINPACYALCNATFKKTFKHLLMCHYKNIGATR

SMILES: COc1cccc(C2CN(C(=O)c3sc4nnc(C)c(C)c4c3N)C2)c1 [Compound 10h]
loss of potency (fold) (hM4): > 100 fold

SMILES: COc1ccc(C2CN(C(=O)c3sc4nnc(C)c(C)c4c3N)C2)cc1 [Compound 10i]
loss of potency (fold) (hM4): ~ 3.5 fold

SMILES: Cc1nnc2sc(C(=O)N3CC(c4ccc(F)cc4)C3)c(N)c2c1C [Compound 10l]
activity at hM2 (hM2): inactive

SMILES: Cc1nnc2sc(C(=O)N3CC(c4ccc(Cl)cc4)C3)c(N)c2c1C [Compound 10m]
hM4 activity (hM4): complete loss of hM4 activity

SMILES: Cc1nnc2sc(C(=O)N3CC(c4ccc(Br)cc4)C3)c(N)c2c1C [Compound 10n]
hM4 activity (hM4): complete loss of hM4 activity

Continued, values first:

loss of potency (fold) (hM4): ~ 10 fold
SMILES: Cc1nnc2sc(C(=O)N3CC(O)(c4ccccc4)C3)c(N)c2c1C [Compound 11a]

loss of potency (fold) (hM4): ~ 6 fold
SMILES: COC1(c2cccc(F)c2)CN(C(=O)c2sc3nnc(C)c(C)c3c2N)C1 [Compound 11b]

Source: PMC6542369 (Bioorganic & medicinal chemistry letters, 2017)
